From ChEMBL document CHEMBL1201862, “PubChem BioAssay data set” (2004)
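How tested: cells in 96-well plates exposed to compound for 48 hours at five concentrations. GI50: concentration for 50% inhibition of growth.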 Activity calls are given as the source filed them. Rule as the data show it: active = GI50 up to about 1.1 µM and inactive = higher.

Legend:
Experiment in all cases: inhibition of tumour cell growth, NCI panel, 48 h
[1] = system: 786-0
[2] = system: A498
[3] = system: A549
[4] = system: ACHN
[5] = system: CAKI-1
[6] = system: CCRF-CEM
[7] = system: COLO 205
[8] = system: DLD-1
[9] = system: DMS-114
[10] = system: DMS-273
[11] = system: EKVX
[12] = system: HCC 2998
[13] = system: HCT-15
[14] = system: HL-60
[15] = system: HOP-18
[16] = system: HOP-62
[17] = system: HT-29
[18] = system: IGROV-1
[19] = system: K562
[20] = system: KM-20L2
[21] = system: KM12
[22] = system: LOX IMVI
[23] = system: LXFL 529
[24] = system: M14
[25] = system: M19-MEL
[26] = system: MOLT-4
[27] = system: Malme-3M
[28] = system: NCI-H226
[29] = system: NCI-H23
[30] = system: NCI-H460
[31] = system: NCI-H522
[32] = system: OVCAR-3
[33] = system: OVCAR-4
[34] = system: OVCAR-5
[35] = system: OVCAR-8
[36] = system: RPMI-8226
[37] = system: RXF 393
[38] = system: RXF 631
[39] = system: SF-268
[40] = system: SF-295
[41] = system: SF-539
[42] = system: SK-MEL-28
[43] = system: SK-MEL-2
[44] = system: SK-MEL-5
[45] = system: SK-OV-3
[46] = system: SN12C
[47] = system: SNB-19
[48] = system: SNB-75
[49] = system: SW-620
[50] = system: TK-10
[51] = system: UACC-257
[52] = system: UACC-62
[53] = system: UO-31

## Cc1cccc(NC2=NC(=O)C(CC(=O)Nc3ccc(Cl)cc3C)S2)c1 (stereo not drawn)
[1]
  GI50: > 100 µM (inactive)
[2]
  GI50: 53.8 µM (inactive)
[3]
  GI50: > 100 µM (inactive)
[4]
  GI50: > 100 µM (inactive)
[5]
  GI50: > 100 µM (inactive)
[6]
  GI50: > 100 µM (inactive)
[7]
  GI50: > 100 µM (inactive)
[8]
  GI50: > 100 µM (inactive)
[9]
  GI50: > 100 µM (inactive)
[10]
  GI50: > 100 µM (inactive)
[11]
  GI50: > 100 µM (inactive)
[12]
  GI50: > 100 µM (inactive)
[13]
  GI50: > 100 µM
[14]
  GI50: > 100 µM (inactive)
[15]
  GI50: > 100 µM (inactive)
[16]
  GI50: > 100 µM (inactive)
[17]
  GI50: > 100 µM (inactive)
[18]
  GI50: > 100 µM (inactive)
[19]
  GI50: > 100 µM (inactive)
[20]
  GI50: > 100 µM (inactive)
[21]
  GI50: > 100 µM (inactive)
[22]
  GI50: > 100 µM (inactive)
[23]
  GI50: > 100 µM (inactive)
[24]
  GI50: > 100 µM (inactive)
[25]
  GI50: > 100 µM (inactive)
[26]
  GI50: > 100 µM (inactive)
[27]
  GI50: > 100 µM (inactive)
[28]
  GI50: > 100 µM (inactive)
[29]
  GI50: > 100 µM (inactive)
[30]
  GI50: > 100 µM (inactive)
[31]
  GI50: > 100 µM (inactive)
[32]
  GI50: > 100 µM (inactive)
[33]
  GI50: > 100 µM (inactive)
[34]
  GI50: > 100 µM (inactive)
[35]
  GI50: > 100 µM (inactive)
[36]
  GI50: > 100 µM (inactive)
[37]
  GI50: > 100 µM (inactive)
[38]
  GI50: > 100 µM (inactive)
[39]
  GI50: > 100 µM (inactive)
[40]
  GI50: > 100 µM (inactive)
[41]
  GI50: > 100 µM (inactive)
[42]
  GI50: > 100 µM (inactive)
[43]
  GI50: > 100 µM (inactive)
[44]
  GI50: > 100 µM (inactive)
[45]
  GI50: > 100 µM (inactive)
[46]
  GI50: > 100 µM (inactive)
[47]
  GI50: > 100 µM (inactive)
[48]
  GI50: > 100 µM (inactive)
[49]
  GI50: > 100 µM (inactive)
[50]
  GI50: > 100 µM (inactive)
[51]
  GI50: > 100 µM (inactive)
[52]
  GI50: > 100 µM (inactive)
[53]
  GI50: > 100 µM (inactive)
